Experimental data from patent US4803203A, “Phenyl and heterocyclic piperazinyl alkoxy-benzheterocyclic compounds as antipsychotic agents” (Warner-Lambert Company, priority 1987, dated 1989).
Like-named read-outs stand apart in the source and are kept apart here.

Legend:
[1] = system: spontaneous locomotion (Swiss-Webster male mice); assay: Inhibition of locomotor activity-screen fall-off test; format: in vivo, mouse (Swiss-Webster male mice); details: Mus musculus, ip, 1 h, intraperitoneal, one hour prior to testing, locomotion accumulated for one hour
Experimental: ANIMALS: Nine unfasted Swiss-Webster male mice (Buckberg Labs) weighing 20-30 g are equally divided into three groups for each drug dose to be tested. That is, data for each dose level was generated by three separate groups of three mice each.
DRUGS: A minimum of three dose levels (10, 30, and 100 mg/kg) are tested for each drug. Treatments are administered intraperitoneally one hour prior to testing. All dosages are calculated as parent compound. Compounds are dissolved or suspended in 0.2% methocel. Control animals are injected with methocel.
TESTING: A two-part testing procedure is started one hour postinjection. First, the screen test is performed (see Pharmac Biochem Behav 6, 351-353, 1977). Briefly, this test consists of placing mice on individual wire screens which are then rotated 180° at the start of a 60-second observation period. The number of mice falling off the inverted screen is recorded.
Immediately following the screen test, the final phase of testing is initiated by placing each group of three mice in one actophotometer (Life Sciences, 22, 1067-1076, 1978). The actophotometer consists of a cylindrical chamber whose center is occupied by another cylinder which contains the illumination for six photocells located on the perimeter of the chamber. Six light-beam interruptions equal one count. Locomotor activity is recorded by computer at ten-minute intervals for 60 minutes.
DATA: The data obtained from the screen test are expressed as percent of mice falling off the screen. Data derived from locomotor activity of drug-treated mice are compared to the activity of vehicle-treated animals and are expressed as percent inhibition of spontaneous locomotion. All percentages reported for inhibition of locomotion are based upon data accumulated for one hour. Both phases of testing are graded: A=60-100%; C=31-59%; and N=0-30%. An overall dose rating is obtained by the following criteria.
All other combinations = N
Utilizing this procedure, an overall dose rating of A was obtained for the noted compounds at the indicated dose, ED50 s, as reported in Table 1.

[2] = target: T1, dopamine receptors (striatal membranes) (Rattus norvegicus, UniProt P61169); assay: [^3 H]Haloperidol binding assay; design: species or system rat (Long-Evans hooded rats); details: 0.6 nM [^3 H]-haloperidol, pH 7.6, 25° C., 40 minutes
T1 construct: striatal membranes prepared from Long-Evans hooded rats; from tissue; host or cells: corpus striatum of Long-Evans hooded rats (membrane homogenate)
T1 sequence (P61169 whole entry): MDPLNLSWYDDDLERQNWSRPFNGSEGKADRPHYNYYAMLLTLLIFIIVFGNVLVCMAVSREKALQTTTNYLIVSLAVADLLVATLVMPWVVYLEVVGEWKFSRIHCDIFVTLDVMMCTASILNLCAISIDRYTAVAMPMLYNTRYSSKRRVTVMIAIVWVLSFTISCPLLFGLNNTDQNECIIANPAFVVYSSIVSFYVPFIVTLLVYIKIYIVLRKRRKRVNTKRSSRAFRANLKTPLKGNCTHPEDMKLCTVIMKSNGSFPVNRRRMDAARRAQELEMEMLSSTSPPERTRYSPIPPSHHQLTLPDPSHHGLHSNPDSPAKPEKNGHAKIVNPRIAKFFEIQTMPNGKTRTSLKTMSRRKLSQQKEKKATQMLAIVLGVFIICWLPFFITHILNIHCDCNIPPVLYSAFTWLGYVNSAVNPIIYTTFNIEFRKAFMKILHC
Experimental: The antipsychotic activity of representative compounds of the invention was also established by the [^3 H]haloperidol binding assay method which is described in Mol. Pharmacol. 12, 800 (1976) and reports excellent correlation between the amount of binding and clinical potency.
[^3 H]Haloperidol Binding Assay. The relative affinities of compounds for dopamine receptors were evaluated on the basis of their ability to displace [^3 H]-haloperidol from striatal membranes prepared from Long-Evans hooded rats. Rats were decapitated; the brains were removed, and the corpus striata were dissected. The corpus striata were homogenized in 40 volumes of […] Tris buffer (pH 7.6) and centrifuged. Pellets were rehomogenized in 50 volumes of the same buffer and used for the binding assay. Incubations were carried out in 10 ml of […] Tris-HCl buffer (pH 7.6) containing 2 mg/ml of original wet tissue weight of homogenate, 100 μl of test agent or solvent, and 0.6 nM of [^3 H]-haloperidol. Nonspecific binding was determined in the presence of 0.1 μM (+)-butaclamol. Samples were incubated in reciprocating water bath at 25° C. for 40 minutes. Incubation was terminated by rapid filtration under reduced pressure through glass fiber filters (Whatman GF/B). The filters were rinsed three times with 10 ml of Tris-HCl buffer. The filters were placed in 10 ml of scintillation cocktail (Beckman Ready-Solv HP) and shaken for one hour. Radioactivity retained on the filter was determined by liquid scintillation spectrophotometry. IC50 s when determined were calculated from a nonlinear computer curve, fit on the data from […], each done in triplicate.

[3] = rat striatal membranes, read-out: ^3 H-Haloperidol Binding IC50
[4] = ^3 H-Haloperidol Binding IC50, rat striatal membranes

SMILES | IC50 [2, 3] [nM] | ED50 [1] [mg/kg] | IC50 [2, 4] [nM]
c1cnc(N2CCN(CCCOc3ccc4cccnc4c3)CC2)nc1 [Example 2V, 7-[3-[4-(2-pyrimidinyl)-1-piperazinyl]propoxy]quinoline] | 900 | 1 | –
C1=C(c2ccccc2)CCN(CCCOc2cccc3[nH]ccc23)C1 [Example 2F, 4-[3-(3,6-dihydro-4-phenyl-1(2H)-pyridinyl)propoxy]-1H-indole] | – | 2.5 | 40
c1cnc(N2CCN(CCCCOc3cccc4ncccc34)CC2)nc1 [Example 2N, 5-[4-[4-(2-pyrimidinyl)-1-piperazinyl]butoxy]quinoline] | 180 | – | –
c1ccc(N2CCN(CCCOc3ccc4ncccc4c3)CC2)cc1 [Example 2K, 6-[3-(4-phenyl-1-piperazinyl)propoxy]-quinoline] | 90 | 0.5 | –
c1cnc(N2CCN(CCCCOc3ccc4ncccc4c3)CC2)nc1 [Example 2L, 6-[4-[4-(2-pyrimidinyl)-1-piperazinyl]butoxy]quinoline] | 50 | 0.9 | –
C1=C(c2ccccc2)CCN(CCCOc2cccc3cnccc23)C1 [Example 2O, 5-[3-(3,6-dihydro-4-phenyl-1(2H)-pyridinyl)propoxy]isoquinoline] | – | 0.18 | 33
C1=C(c2ccccc2)CCN(CCCCOc2ccc3[nH]ccc3c2)C1 [Example 2H, 5-[4-(3,6-dihydro-4-phenyl-1(2H)-pyridinyl)butoxy]-1H-indole] | – | 0.5 | 10
O=C1COc2cc(OCCCN3CC=C(c4ccccc4)CC3)ccc21 [Example 2C] | – | 3.5 | < 100
c1ccc(N2CCN(CCCOc3ccc4ccoc4c3)CC2)cc1 [Example 5, 1-[3-[6-Benzofuranyloxy]propyl]-4-phenylpiperazine] | 500 | 8.8 | –
c1ccc(N2CCN(CCCOc3ccc4[nH]cnc4c3)CC2)cc1 [Example 3, 5-[3-(4-Phenylpiperazinyl)propyloxy]-1H-benzimidazole] | – | 4.9 | 120
C1=C(c2ccccc2)CCN(CCCCOc2ccc3ncccc3c2)C1 [Example 2M, 6-[4-(3,6-dihydro-4-phenyl-1(2H)-pyridinyl)butoxy]quinoline] | – | 1.1 | 17
c1ccc(N2CCN(CCCOc3ccc4c(c3)OCCC4)CC2)cc1 [Example 2D, 1-[3-[(3,4-dihydro-2H-1-benzopyran-7-yl)oxy]propyl]-4-phenylpiperazine] | 70 | 2.7 | –
c1cnc(N2CCN(CCCCOc3cccc4ncccc34)CC2)nc1 [Example 2S, 5-[4-[4-(2-pyrimidinyl)-1-piperazinyl]butoxy]quinoline] | 184 | 7.7 | –
C1=C(c2ccccc2)CCN(CCCCOc2cccc3[nH]ccc23)C1 [Example 2G, 4-[4-(3,6-dihydro-4-phenyl-1(2H)-pyridinyl)butoxy]-1H-indole] | – | 1.4 | 50
CC1(C)CC(=O)c2ccc(OCCCN3CC=C(c4ccccc4)CC3)cc2O1 [Example 2A, 7-[3-[3,6-dihydro-4-phenyl-1(2H)-pyridinyl)propoxy]-2,3-dihydro-2,2-dimethyl-4H-benzopyran-4-one] | – | 4.8 | < 100
C1=C(c2ccccc2)CCN(CCCOc2ccc3cc[nH]c3c2)C1 [Example 2I, 6-[3-(3,6-dihydro-4-phenyl-1(2H)-pyridinyl)propoxy]-1H-indole] | – | 2.8 | 100

Now from value to molecule, other results behind:

IC50 [2, 3] [nM] | SMILES | ED50 [1] [mg/kg] | IC50 [2, 4] [nM]
431 | O=C1NCCc2c(OCCCN3CCN(c4ccccn4)CC3)cccc21 [Example 2X] | 4.4 | –
160 | O=C1Cc2cc(OCCCN3CCN(c4ccccc4)CC3)ccc2N1 [Example 4, 1,3-dihydro-5-[3-(4-phenyl-1-piperazinyl)propoxy]-2H-indole-2-one] | 0.4 | –
100 | O=C1COc2cc(OCCCN3CCN(c4ccccc4)CC3)ccc21 [Example 2B, 6-[3-(4-phenyl-1-piperazinyl)propoxy]-3-(2H)-benzofuranone] | 3.7 | –
230 | c1ccc(N2CCN(CCCOc3ccc4cccnc4c3)CC2)nc1 [Example 2T, 7-[3-[4-(2-pyridinyl)-1-piperazinyl]propoxy]quinoline] | 0.17 | –
200 | c1cnc(N2CCN(CCCOc3ccc4cc[nH]c4c3)CC2)nc1 [Example 2J, 6-[3-[4-(2-pyrimidinyl)-1-piperazinyl]propoxy]-1H-indole] | 3.2 | –
50 | c1ccc(N2CCN(CCCOc3ccc4cccnc4c3)CC2)cc1 [Example 2U, 7-[3-(4-phenyl-1-piperazinyl)propoxy]quinoline] | 0.1 | –
300 | CC1(C)CC(=O)c2ccc(OCCCN3CCN(c4ccccc4)CC3)cc2O1 [Example 1, 2,3-Dihydro-2,2-dimethyl-7-(3-(4-phenyl)-1-piperizinyl)propoxy-4H-benzopyran-4-one] | 5.9 | –
947 | c1cnc(N2CCN(CCCOc3cccc4cnccc34)CC2)nc1 [Example 2R, 5-[3-[4-(2-pyrimidinyl)-1-piperazinyl]propoxy]isoquinoline] | 19.5 | –
645 | c1ccc(N2CCN(CCCOc3cccc4cnccc34)CC2)nc1 [Example 2P, 5-[3-[4-(2-pyridinyl)-1-piperazinyl]propoxy]isoquinoline] | 3 | –
206 | c1ccc(N2CCN(CCCOc3cccc4cnccc34)CC2)cc1 [Example 2Q, 5-[3-(4-phenyl-1-piperazinyl)propoxy]isoquinoline] | 0.29 | –
1000 | O=C1COc2ccc(OCCCN3CCN(c4ncccn4)CC3)cc2N1 [Example 2E, 6-[3-[4-(2-pyrimidinyl)-1-piperazinyl]propoxy]-2H-1,4-benzoxazine-3(4H)-one] | 1 | –
651 | Oc1nccc2c(OCCCN3CCN(c4ccccn4)CC3)cccc12 [Example 2W, 5-[3-[4-(2-pyridinyl)-1-piperazinyl]propoxy]-1-isoquinolinol] | 6.1 | –
